Measured values taken from US20210154190A1, “SHP2 INHIBITOR COMPOSITIONS AND METHODS FOR TREATING CANCER” (Revolution Medicines, Inc., priority 2018, published 2021).
Positions count from the first letter of the chain named. Several values for one entry are separate records, joined by “and”; a condition that tells them apart may be missing. Equal entries are not always repeated. Where two headings read alike, the source gives them in different places.

Tests used:
Format in all cases: biochemical
human SHP2-FL L262R = target: T1, human SHP2-FL L262R (Homo sapiens, UniProt Q06124, L262R); test: SHP2 allosteric inhibition assay (DiFMUP), L262R
T1 sequence (Q06124 1-593 L262R): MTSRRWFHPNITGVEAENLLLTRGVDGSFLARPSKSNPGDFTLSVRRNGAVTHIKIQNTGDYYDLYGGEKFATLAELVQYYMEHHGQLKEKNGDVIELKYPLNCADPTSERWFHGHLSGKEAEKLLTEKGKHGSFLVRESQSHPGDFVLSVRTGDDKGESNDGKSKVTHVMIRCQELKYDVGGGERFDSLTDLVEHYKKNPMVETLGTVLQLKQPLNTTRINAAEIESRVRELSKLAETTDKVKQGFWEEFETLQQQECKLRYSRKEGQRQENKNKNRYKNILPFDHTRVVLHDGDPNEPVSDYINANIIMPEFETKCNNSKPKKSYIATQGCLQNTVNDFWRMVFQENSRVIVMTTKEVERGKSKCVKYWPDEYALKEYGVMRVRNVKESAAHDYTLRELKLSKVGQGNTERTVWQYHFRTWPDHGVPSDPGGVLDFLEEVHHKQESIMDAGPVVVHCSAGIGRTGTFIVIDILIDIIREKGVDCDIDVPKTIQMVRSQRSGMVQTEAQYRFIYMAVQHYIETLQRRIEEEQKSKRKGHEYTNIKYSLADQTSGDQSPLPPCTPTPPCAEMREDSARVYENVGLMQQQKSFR
Procedure: (§1) Full-length SHP2 is allosterically activated through binding of bis-tyrosyl-phorphorylated peptides to its Src Homology 2 (SH2) domains. The latter activation step leads to the release of the auto-inhibitory interface of SHP2, which in turn renders the SHP2 protein tyrosine phosphatase (PTP) active and available for substrate recognition and reaction catalysis. The catalytic activity of SHP2 was monitored using the surrogate substrate DiFMUP in a prompt fluorescence assay format.
(§2) […] […] 50 μl stop solution (0.1 mM sodium pervanadate) was added to each well, the plate was shaken briefly to mix, and read in endpoint mode on a SpectraMax M5 plate reader (Molecular Devices) using excitation and emission wavelengths of 340 nm and 450 nm. Data was imported into GraphPad Prism. Plots of fluorescence intensity vs. log Molar [compound] were created and modeled with a 3-parameter sigmoidal concentration response equation in order to estimate IC50.
(§3) Reactions were then allowed to proceed for 30 minutes and stopped by the addition of a phosphatase inhibitor, sodium pervanadate. De-phosphorylation of DiFMUP results in production of a fluorescent product. Product fluorescence was determined and plotted as a function of compound concentration in order to determine the IC50 for each compound on each mutant using a four parameter sigmoidal dose response function in Prism (GraphPad).
(§4) NsCs mimics the role of the cytosolic domain of a protein tyrosine kinase in this model system.

human SHP2-FL E76K = target: T2, human SHP2-FL E76K (Homo sapiens, UniProt Q06124, E76K); test: SHP2 allosteric inhibition assay (DiFMUP), E76K; conditions: for IC50: SHP2 E76K
T2 sequence (Q06124 1-593 E76K): T1 sequence (Q06124 1-593 L262R) with E76K, R262L
Source text: as §1
Diluted inhibitor (5 μL) was mixed with activated enzyme (25 μl) and incubated for 30 minutes at room temperature. […] 50 μl stop solution (0.1 mM sodium pervanadate) was added to each well, the plate was shaken briefly to mix, and read in endpoint mode on a SpectraMax M5 plate reader (Molecular Devices) using excitation and emission wavelengths of 340 nm and 450 nm. Data was imported into GraphPad Prism. Plots of fluorescence intensity vs. log Molar [compound] were created and modeled with a 3-parameter sigmoidal concentration response equation in order to estimate IC50.
as §3, §4

human SHP2-FL D61G = target: T3, human SHP2-FL D61G (Homo sapiens, UniProt Q06124, D61G); test: SHP2 allosteric inhibition assay (DiFMUP), D61G; conditions: for IC50: SHP2 D61G
T3 sequence (Q06124 1-593 D61G): T1 sequence (Q06124 1-593 L262R) with D61G, R262L
Procedure: as §1, §2, §3, §4

[1] = 0.5 μM NsCs peptide (Activated), read-out: IC50
[2] = No Peptide Control (Non-Activated), read-out: pIC50 (converted)

| SMILES | IC50 (human SHP2-FL L262R; IC50 (nM), SHP2 L262R 0.5 μM NsCs peptide (Activated), human SHP2-FL L262R, 0.5 μM NsCs peptide (activated)) | IC50 (human SHP2-FL L262R; human SHP2-FL L262R alone, no peptide (non-activated), read-out: IC50 (nM), SHP2 L262R No Peptide Control (Non-Activated)) | IC50 (human SHP2-FL L262R; human SHP2-FL L262R alone, no peptide (non-activated), read-out: pIC50, SHP2 L262R No Peptide Control (Non-Activated) (converted)) | IC50 (human SHP2-FL L262R; pIC50, SHP2 L262R 0.5 μM NsCs peptide (Activated), human SHP2-FL L262R, 0.5 μM NsCs peptide (activated)) | IC50 (human SHP2-FL E76K; [1]) | IC50 (human SHP2-FL E76K; [2]) | IC50 (human SHP2-FL D61G; [1]) | IC50 (human SHP2-FL D61G; 0.5 μM NsCs peptide (Activated), read-out: pIC50 (converted)) | IC50 (human SHP2-FL D61G; No Peptide Control (Non-Activated), read-out: IC50) | IC50 (human SHP2-FL D61G; [2]) | Biochemical sensitivity (human SHP2-FL L262R; Variant L262R) | Biochemical sensitivity (human SHP2-FL E76K; Variant E76K) | Biochemical sensitivity (human SHP2-FL D61G; Variant D61G) |
| --- | --- | --- | --- | --- | --- | --- | --- | --- | --- | --- | --- | --- | --- |
| Nc1nc(N2CCC3(CCC[C@H]3N)CC2)cnc1Sc1ccnc(Cl)c1Cl [Compound 1] | 79.4 nM and 62.2 nM and 69.2 nM and 74.6 nM | 2.83 nM and 3.37 nM and 2.75 nM and 3.43 nM | 2.82 nM and 3.39 nM and 2.75 nM | 79.4 nM and 61.7 nM and 69.2 nM and 74.1 nM | > 10000 nM and 13100 nM and 10400 nM | 53.7 nM and 58.9 nM and 50.1 nM | 185 nM and 219 nM and 198 nM and 191 nM | 186 nM and 219 nM and 200 nM and 191 nM | 1.85 nM and 2.45 nM and 1.6 nM and 1.81 nM | 1.86 nM and 2.45 nM and 1.58 nM and 1.82 nM |  |  |  |
| Cc1nc(N2CCC3(CC2)CO[C@@H](C)[C@H]3N)c(CO)nc1-c1cccc(Cl)c1Cl [Compound B] |  |  |  |  |  |  |  |  |  |  | yes (Sensitive if IC50 < 2000 nM) | no (Sensitive if IC50 < 2000 nM) | yes (Sensitive if IC50 < 2000 nM) |
